target: T1, ATM (Homo sapiens, UniProt Q13315); assay: ATM inhibition test (phosphorylation of Chk2 generated by ionizing radiation, AlphaScreen SureFire); type: cell-based; conditions: phosphorylated Chk2 in NCI-H460 cells, ionizing radiation 8Gy, 1 hour after test compound treatment; read-out: ATM inhibitory activity
T1 construct: detecting phosphorylation of Chk2 in a human non-small cell lung cancer cell line NCI-H460 (ATCC company); host or cells: NCI-H460 human non-small cell lung cancer cells
T1 sequence (Q13315 whole entry): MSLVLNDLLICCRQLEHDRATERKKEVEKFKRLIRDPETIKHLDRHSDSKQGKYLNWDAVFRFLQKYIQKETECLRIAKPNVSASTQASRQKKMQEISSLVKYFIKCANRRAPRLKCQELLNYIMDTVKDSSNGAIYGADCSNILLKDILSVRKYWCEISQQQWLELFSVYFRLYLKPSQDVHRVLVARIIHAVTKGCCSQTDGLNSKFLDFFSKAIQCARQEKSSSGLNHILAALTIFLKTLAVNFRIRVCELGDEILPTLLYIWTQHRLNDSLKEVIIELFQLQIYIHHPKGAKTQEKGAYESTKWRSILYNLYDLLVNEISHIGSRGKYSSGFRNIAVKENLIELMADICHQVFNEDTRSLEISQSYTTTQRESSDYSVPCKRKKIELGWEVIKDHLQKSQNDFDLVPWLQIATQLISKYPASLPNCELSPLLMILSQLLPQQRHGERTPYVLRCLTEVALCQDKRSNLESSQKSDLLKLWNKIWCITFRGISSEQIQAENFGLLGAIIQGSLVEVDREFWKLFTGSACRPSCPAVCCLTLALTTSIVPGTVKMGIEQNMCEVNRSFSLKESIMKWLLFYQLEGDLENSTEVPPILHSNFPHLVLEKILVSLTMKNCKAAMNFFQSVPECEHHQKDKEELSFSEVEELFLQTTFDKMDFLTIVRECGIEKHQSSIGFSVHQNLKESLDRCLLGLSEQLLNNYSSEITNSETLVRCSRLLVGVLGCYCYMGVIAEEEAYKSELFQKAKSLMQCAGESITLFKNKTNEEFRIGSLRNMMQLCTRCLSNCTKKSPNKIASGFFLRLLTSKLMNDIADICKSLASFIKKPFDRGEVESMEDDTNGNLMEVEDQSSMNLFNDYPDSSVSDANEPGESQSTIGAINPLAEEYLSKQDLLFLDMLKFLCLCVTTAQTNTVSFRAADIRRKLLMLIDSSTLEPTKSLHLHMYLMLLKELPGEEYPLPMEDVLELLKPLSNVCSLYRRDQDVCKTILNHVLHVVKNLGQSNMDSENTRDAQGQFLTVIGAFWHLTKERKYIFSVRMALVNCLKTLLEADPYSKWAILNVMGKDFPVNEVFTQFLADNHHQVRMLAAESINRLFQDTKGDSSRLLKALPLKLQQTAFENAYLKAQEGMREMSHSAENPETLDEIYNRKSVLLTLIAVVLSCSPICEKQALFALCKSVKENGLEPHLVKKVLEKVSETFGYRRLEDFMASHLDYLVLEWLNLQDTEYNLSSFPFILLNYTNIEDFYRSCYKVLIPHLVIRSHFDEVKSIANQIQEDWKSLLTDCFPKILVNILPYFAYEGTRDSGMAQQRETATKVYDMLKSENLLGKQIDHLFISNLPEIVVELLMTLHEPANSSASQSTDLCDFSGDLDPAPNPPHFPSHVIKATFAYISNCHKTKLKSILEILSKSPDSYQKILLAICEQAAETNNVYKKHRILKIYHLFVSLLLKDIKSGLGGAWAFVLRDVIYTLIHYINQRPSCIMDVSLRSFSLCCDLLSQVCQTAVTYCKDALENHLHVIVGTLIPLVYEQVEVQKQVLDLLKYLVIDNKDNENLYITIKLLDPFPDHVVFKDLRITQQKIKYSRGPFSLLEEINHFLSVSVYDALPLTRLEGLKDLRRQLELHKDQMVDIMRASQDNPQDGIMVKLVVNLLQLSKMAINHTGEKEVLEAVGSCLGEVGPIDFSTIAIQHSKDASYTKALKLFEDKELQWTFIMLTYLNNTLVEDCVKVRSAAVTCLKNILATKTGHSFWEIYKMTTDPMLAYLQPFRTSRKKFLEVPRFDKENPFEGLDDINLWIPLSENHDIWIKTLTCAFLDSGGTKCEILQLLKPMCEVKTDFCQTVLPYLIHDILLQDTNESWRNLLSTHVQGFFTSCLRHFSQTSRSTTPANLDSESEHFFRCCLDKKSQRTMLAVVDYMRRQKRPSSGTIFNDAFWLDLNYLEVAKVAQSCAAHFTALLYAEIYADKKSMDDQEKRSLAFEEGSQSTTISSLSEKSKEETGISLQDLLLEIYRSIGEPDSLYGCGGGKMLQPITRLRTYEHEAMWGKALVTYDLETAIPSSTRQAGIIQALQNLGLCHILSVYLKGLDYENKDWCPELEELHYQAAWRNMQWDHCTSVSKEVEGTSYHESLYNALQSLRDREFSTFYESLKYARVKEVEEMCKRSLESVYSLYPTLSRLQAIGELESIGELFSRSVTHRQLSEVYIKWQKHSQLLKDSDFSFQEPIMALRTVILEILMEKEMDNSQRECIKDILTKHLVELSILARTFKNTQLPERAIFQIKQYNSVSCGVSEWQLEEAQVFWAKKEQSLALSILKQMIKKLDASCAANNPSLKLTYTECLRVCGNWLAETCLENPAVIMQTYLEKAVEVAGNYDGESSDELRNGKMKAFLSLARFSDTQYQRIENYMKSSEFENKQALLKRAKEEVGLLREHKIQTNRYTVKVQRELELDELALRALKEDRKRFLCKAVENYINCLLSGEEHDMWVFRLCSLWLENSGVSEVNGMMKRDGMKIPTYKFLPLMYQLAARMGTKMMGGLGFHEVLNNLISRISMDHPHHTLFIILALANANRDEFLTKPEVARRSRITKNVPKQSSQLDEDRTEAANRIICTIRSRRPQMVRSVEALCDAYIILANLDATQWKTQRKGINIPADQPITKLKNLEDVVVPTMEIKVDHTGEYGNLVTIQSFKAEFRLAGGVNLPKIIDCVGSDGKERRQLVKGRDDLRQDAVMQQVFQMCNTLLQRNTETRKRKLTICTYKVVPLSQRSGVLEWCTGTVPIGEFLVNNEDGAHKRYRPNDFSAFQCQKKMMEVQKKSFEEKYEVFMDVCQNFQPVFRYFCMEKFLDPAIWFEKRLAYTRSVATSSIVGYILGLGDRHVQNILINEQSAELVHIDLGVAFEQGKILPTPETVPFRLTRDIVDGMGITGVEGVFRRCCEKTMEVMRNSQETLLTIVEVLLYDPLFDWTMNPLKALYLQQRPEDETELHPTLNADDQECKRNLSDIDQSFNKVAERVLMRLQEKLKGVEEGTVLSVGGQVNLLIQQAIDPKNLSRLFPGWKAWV
In short: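 NCI-H460 cells treated with compound for 1 hour, then irradiated with 8Gy and incubated 1 hour at 37° C. Phospho-Chk2 measured by AlphaScreen SureFire. Inhibition ratio calculated relative to untreated irradiated and non-irradiated wells.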

IC50	SMILES
100 to 500 nM	O=c1cc(N2CCOCC2)cc(-c2nccc3c2Oc2ccc(NCc4cncc(Cl)c4)cc2C3)[nH]1 [Example 2-41-9, 6-(7-(((5-Chloropyridin-3-yl)methyl)amino)-5H-chromeno [2,3-c]pyridin-1-yl)-4-morpholino pyridin-2(1H)-one]
100 to 500 nM	COc1cc(CNc2ccc3c(c2)Cc2ccnc(-c4cc(N5CCOCC5)cc(=O)[nH]4)c2O3)cnc1OC [Example 2-41-10, 6-(7-(((5,6-Dimethoxypyridin-3-yl)methyl)amino)-5H-chromeno[2,3-c]pyridin-1-yl)-4-morpholino pyridin-2(1H)-one]
100 to 500 nM	O=c1cc(N2CCOCC2)cc(-c2nccc3c2Oc2ccc(NCc4cncc(C5CC5)c4)cc2C3)[nH]1 [Example 2-41-11, 6-(7-(((5-Cyclopropylpyridin-3-yl)methyl)amino)-5H-chromeno[2,3-c]pyridin-1-yl)-4-morpholino pyridin-2(1H)-one]
500 to 2000 nM	COc1ncc(CNc2ccc3c(c2)Cc2ccnc(-c4cc(N5CCOCC5)cc(=O)[nH]4)c2O3)cn1 [Example 2-42-1, 6-(7-(((2-Methoxypyrimidin-5-yl)methyl)amino)-5H-chromeno[2,3-c]pyridin-1-yl)-4-morpholinopyridin-2(1H)-one]
100 to 500 nM	Cc1ccc(CNc2ccc3c(c2)Cc2ccnc(-c4cc(N5CCOCC5)cc(=O)[nH]4)c2O3)nc1 [Example 2-42-2, 6-(7-(((5-Methylpyridin-2-yl)methyl)amino)-5H-chromeno[2,3-c]pyridin-1-yl)-4-morpholinopyridin-2(1H)-one]
100 to 500 nM	Cc1cc(CNc2ccc3c(c2)Cc2ccnc(-c4cc(N5CCOCC5)cc(=O)[nH]4)c2O3)ccn1 [Example 2-42-3, 6-(7-(((2-Methylpyridin-4-yl)methyl)amino)-5H-chromeno[2,3-c]pyridin-1-yl)-4-morpholinopyridin-2(1H)-one]
100 to 500 nM	Cc1ccc(CNc2ccc3c(c2)Cc2ccnc(-c4cc(N5CCOCC5)cc(=O)[nH]4)c2O3)cn1 [Example 2-42-4, 6-(7-(((6-Methylpyridin-3-yl)methyl)amino)-5H-chromeno[2,3-c]pyridin-1-yl)-4-morpholinopyridin-2(1H)-one]

Second part, the compound before the results:

SMILES	IC50
COc1cccnc1CNc1ccc2c(c1)Cc1ccnc(-c3cc(N4CCOCC4)cc(=O)[nH]3)c1O2 [Example 2-41-12, 6-(7-(((3-Methoxypyridin-2-yl)methyl)amino)-5H-chromeno [2,3-c]pyridin-1-yl)-4-morpholino pyridin-2(1H)-one]	500 to 2000 nM
CC(Nc1ccc2c(c1)Cc1ccnc(-c3cc(N4CCOCC4)cc(=O)[nH]3)c1O2)c1cccc(F)n1 (stereo not shown) [Example 2-41-13, 6-(7-((1-(6-Fluoropyridin-2-yl)ethyl)amino)-5H-chromeno[2,3-c]pyridin-1-yl]-4-morpholino pyridin-2(1H)-one]	100 to 500 nM
COc1ccnc(C(C)Nc2ccc3c(c2)Cc2ccnc(-c4cc(N5CCOCC5)cc(=O)[nH]4)c2O3)c1 (stereo not shown) [Example 2-41-14]	100 to 500 nM
N#Cc1cccc(CNc2ccc3c(c2)Cc2ccnc(-c4cc(N5CCOCC5)cc(=O)[nH]4)c2O3)n1 [Example 2-41-15, 6-(((1-(4-Morpholino-6-oxo-1,6-dihydropyridin-2-yl)-5H-chromeno[2,3-c]pyridin-7-yl)amino)methyl)picolinonitrile]	100 to 500 nM
N#Cc1ccnc(CNc2ccc3c(c2)Cc2ccnc(-c4cc(N5CCOCC5)cc(=O)[nH]4)c2O3)c1 [Example 2-41-16, 2-(((1-(4-Morpholino-6-oxo-1,6-dihydropyridin-2-yl)-5H-chromeno[2,3-c]pyridin-7-yl)amino)methyl)isonicotinonitrile]	100 to 500 nM
N#Cc1ccc(CNc2ccc3c(c2)Cc2ccnc(-c4cc(N5CCOCC5)cc(=O)[nH]4)c2O3)s1 [Example 2-41-17, 5-(((1-(4-Morpholino-6-oxo-1,6-dihydropyridin-2-yl)-5H-chromeno[2,3-c]pyridin-7-yl)amino)methyl)thiophene-2-carbonitrile]	100 to 500 nM
